Measured values taken from publication PMC8658928, “Isolation of N-Ethyl-2-pyrrolidinone-Substituted Flavanols from White Tea Using Centrifugal Countercurrent Chromatography Off-Line ESI-MS Profiling and Semi-Preparative Liquid Chromatography” (Molecules, 2021).
pIC50: −log10 of the molar value.

Target: α-glucosidase
Experiment: pNPG hydrolysis assay, absorbance at […] nm, pH […]
Type: biochemical

Compound: O=C(O[C@@H]1Cc2c(O)cc(O)cc2O[C@@H]1c1cc(O)c(O)c(O)c1)c1cc(O)c(O)c(O)c1 [EGCG]
- pIC50: 3.89

Compound: CCN1C(=O)CC[C@@H]1c1c(O)cc(O)c2c1O[C@H](c1cc(O)c(O)c(O)c1)[C@H](OC(=O)c1cc(O)c(O)c(O)c1)C2 [R-EGCG-cThea]
- pIC50: 4.15

Compound: CCN1C(=O)CC[C@H]1c1c(O)cc(O)c2c1O[C@H](c1cc(O)c(O)c(O)c1)[C@H](OC(=O)c1cc(O)c(O)c(O)c1)C2 [S-EGCG-cThea]
- pIC50: 3.79
